# Reference: US20050187240A1, “Aaptamine and isoaaptamine and structural modifications thereof” (The Arizona Board of Regents, Acting for and on behalf of …, priority 2004, published 2005)
# Where two headings read alike, the source gives them in different places.
# How the values were obtained:
# Enterobacter cloacae = assay: Broth microdilution susceptibility assay, Enterobacter cloacae; assay type: cell-based; details: for MIC: Table 4, read-out: Range of minimum inhibitory concentration
# Staphylococcus aureus = assay: Broth microdilution susceptibility assay, Staphylococcus aureus; assay type: cell-based; details: for MIC: Table 4, read-out: Range of minimum inhibitory concentration
# PKC alpha [1] = target: T1, PKC alpha (Homo sapiens, UniProt P17252); assay: Inhibition of PKC catalytic activity (peptide substrate phosphorylation); assay type: biochemical; details: for inhibition at 30 µM: read-out: percent inhibition of PKC catalytic activity
# Text: We further evaluated the ability of the derivatives to inhibit PKC catalytic activity. […] Inhibition by 10c was 19.5±7.6% and inhibition by 4, 5, and 9a, b, c was 6% or less (all values are mean±SEM, three experiments). […] In both cases, the inhibition curves were steeper than predicted for a competitive inhibitor, consistent with a complicated mechanism of action (Hill coefficients for 10a and 10b of 1.5±0.1 and 2.0±0.5, respectively).
# [2] = test system: Stenotrophomonas maltophilia; assay: Broth microdilution susceptibility assay, Stenotrophomonas maltophilia; assay type: cell-based; details: for MIC: Table 4, Stenotrophomonas maltophil, read-out: Range of minimum inhibitory concentration
# colon KM 20L2 = assay: Cancer cell growth inhibition, colon KM 20L2; assay type: cell-based, human; details: Homo sapiens, colon KM 20L2
# In short: (§1)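 Growth inhibition in murine P388 leukemia and human cancer cell line panels (Arizona State University minipanel and NCI 60-cell screen).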
# CNS SF-268 = assay: Cancer cell growth inhibition, CNS SF-268; assay type: cell-based, human; details: Homo sapiens, CNS SF-268
# Procedure: (§2) Biology The cancer cell growth inhibitory properties were examined using the murine P388 lymphocytic leukemia cell line and a selection of human cancer cell lines.
# (§3) All of the synthetic products were evaluated against a minipanel of human cancer cell lines, the murine P388 lymphocytic leukemia cell line and a selection of microorganisms.
# Vero cells = details: cited from earlier work
# [3] = test system: murine P388 lymphocytic leukemia cell line; assay: Cancer cell growth inhibition, murine P388 lymphocytic leukemia cell line; assay type: cell-based; details: Mus musculus
# In short: as §1
# Enterococcus faecalis = assay: Broth microdilution susceptibility assay, Enterococcus faecalis; assay type: cell-based; details: for MIC: Table 4, read-out: Range of minimum inhibitory concentration
# breast MCF-7 = assay: Cancer cell growth inhibition, breast MCF-7; assay type: cell-based, human; details: Homo sapiens, MCF7, breast MCF-7
# Procedure: as §2, §3
# Streptococcus pneumoniae = assay: Broth microdilution susceptibility assay, Streptococcus pneumoniae; assay type: cell-based; details: for MIC: Table 4, read-out: Range of minimum inhibitory concentration
# Micrococcus luteus = assay: Broth microdilution susceptibility assay, Micrococcus luteus; assay type: cell-based; details: for MIC: Table 4, read-out: Range of minimum inhibitory concentration
# prostrate DU-145 = assay: Cancer cell growth inhibition, prostate DU-145; assay type: cell-based, human; details: Homo sapiens
# Procedure: as §2, §3
# [4] = test system: herpes simplex virus type 1 (HSV-1); details: cited from earlier work
# Cryptococcus neoformans = assay: Broth microdilution susceptibility assay, Cryptococcus neoformans; assay type: cell-based; details: for MIC: Table 4, read-out: Range of minimum inhibitory concentration
# Neisseria gonorrhoeae = assay: Broth microdilution susceptibility assay, Neisseria gonorrhoeae; assay type: cell-based; details: for MIC: Table 4, read-out: Range of minimum inhibitory concentration
# lung NCI-H460 = assay: Cancer cell growth inhibition, lung NCI-H460; assay type: cell-based, human; details: Homo sapiens, lung NCI-H460
# In short: as §1
# pancreas BXPC-3 = assay: Cancer cell growth inhibition, pancreas BXPC-3; assay type: cell-based, human; details: Homo sapiens, pancreas BXPC-3
# Procedure: as §2, §3
# Candida albicans = assay: Broth microdilution susceptibility assay, Candida albicans; assay type: cell-based; details: for MIC: Table 4, read-out: Range of minimum inhibitory concentration
# Escherichia coli = assay: Broth microdilution susceptibility assay, Escherichia coli; assay type: cell-based; details: for MIC: Table 4, read-out: Range of minimum inhibitory concentration
# [5] = test system: murine P388 lymphocytic leukemia cell line and a selection of human cancer cell lines; assay: Cancer cell growth inhibition, P388 and human cancer cell line panel (summary in words); assay type: cell-based
# Text: as §2
# PKC alpha [6] = target: T1, PKC alpha; assay: Inhibition of [3H]phorbol 12,13-dibutyrate binding to PKC alpha; details: read-out: inhibition of [3H]phorbol 12,13-dibutyrate binding to PKC alpha
# In short: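 Compounds tested at a single 30 μM concentration for displacement of [3H]phorbol 12,13-dibutyrate binding to PKC alpha, reported as percent inhibition. Triplicate measurements in one or three independent experiments depending on compound.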
# [7] = test system: genes whose products are involved in DNA synthesis; assay: cDNA microarray assay with THP-1 cells; assay type: cell-based, human; details: THP-1 cells treated for 23 hours with 0.25 μg/ml
# [8] = test system: Mycobacterium tuberculosis H37Rv; assay: Microplate Alamar Blue Assay, Mycobacterium tuberculosis; assay type: cell-based; details: 6.25 μg/ml
# [9] = test system: THP-1 human monocytic leukemia cells; assay: Flow cytometry cell cycle analysis of THP-1 cells; assay type: cell-based; details: THP-1 cells pretreated for 24 hours with 0.25 μg/ml
# [10] = Table 3, read-out: Cancer cell growth inhibitory ED50
# [11] = Table 5, read-out: Cancer Cell Line Results ED50
# [12] = P388, Table 3, leukemia P-388, read-out: Cancer cell growth inhibitory ED50
# [13] = Table 5, leukemia P388, read-out: Cancer Cell Line Results ED50
# [14] = DU-145, Table 5, prostate DRU-145, read-out: Cancer Cell Line Results ED50
# [15] = Table 3, prostrate DU-145, read-out: Cancer cell growth inhibitory ED50
Structure (SMILES),MIC (Enterobacter cloacae),MIC (Staphylococcus aureus),MIC [2],IC50 (colon KM 20L2; [10]),IC50 (colon KM 20L2; [11]),IC50 (CNS SF-268; [10]),IC50 (CNS SF-268; [11]),"IC50 [3, 12]","IC50 [3, 13]",MIC (Enterococcus faecalis),IC50 (breast MCF-7; [10]),IC50 (breast MCF-7; [11]),MIC (Streptococcus pneumoniae),MIC (Micrococcus luteus),IC50 (prostrate DU-145; [14]),IC50 (prostrate DU-145; [15]),MIC (Cryptococcus neoformans),MIC (Neisseria gonorrhoeae),IC50 (lung NCI-H460; [10]),IC50 (lung NCI-H460; [11]),also measured
"COc1cc2c3c(ccnc3c1OC)N(C)C=C2 [Compound 4, 4-Methylaaptamine]",> 64 µg/mL,> 64 µg/mL,> 64 µg/mL,> 10 µg/mL,> 10 µg/mL,> 10 µg/mL,> 10 µg/mL,> 10 µg/mL,> 10 µg/mL,> 64 µg/mL,> 10 µg/mL,> 10 µg/mL,> 64 µg/mL,> 64 µg/mL,> 10 µg/mL,> 10 µg/mL,> 64 µg/mL,> 64 µg/mL,> 10 µg/mL,> 10 µg/mL,"inhibition at 30 µM (PKC alpha [1]; 30 μM compound, 1 μM phorbol 12-myristate 13-acetate, 100 μg/ml phospholipid, mean±SEM, three experiments): ≤ 6%; toxicity to Vero cells (Vero cells): low toxicity; antiviral activity against HSV-1 [4]: potent antiviral activity; IC50 (pancreas BXPC-3; [10]): > 10 µg/mL; IC50 (pancreas BXPC-3; [11]): > 10 µg/mL; MIC (Candida albicans): > 64 µg/mL; MIC (Escherichia coli): > 64 µg/mL"
"CN1C=Cc2cc(O)c(O)c3nccc1c23 [Compound 7, 4-Methyl-8,9-dihydroxy-4H-benzo[de][1,6]naphthyridine]",> 64 µg/mL,> 64 µg/mL,> 64 µg/mL,> 10 µg/mL,,5.6 µg/mL,,2.2 µg/mL,,> 64 µg/mL,4.1 µg/mL,,> 64 µg/mL,> 64 µg/mL,,> 10 µg/mL,> 64 µg/mL,64 µg/mL,> 10 µg/mL,,cancer cell growth inhibitory activity [5]: marginal activity; IC50 (pancreas BXPC-3; [10]): > 10 µg/mL; MIC (Candida albicans): > 64 µg/mL; MIC (Escherichia coli): > 64 µg/mL
"COc1cc2c3c(cc[n+](Cc4ccccc4)c3c1OC)N(Cc1ccccc1)C=C2.[Cl-] [Compound 10a, 1,4-Bis-(benzyl)-8,9-dimethoxy-4H-benzo[de][1,6]naphthyridin-1-ium chloride]",,,,,0.055 µg/mL,,0.064 µg/mL,,0.234 µg/mL,,,0.27 µg/mL,,,0.036 µg/mL,,,,,0.26 µg/mL,Range of minimum inhibitory concentration (Enterobacter cloacae; Table 6): * (no inhibition at 64 μg/mL); inhibition at 30 µM (PKC alpha [6]): 11.8%; Range of minimum inhibitory concentration (Staphylococcus aureus; Table 6): * (no inhibition at 64 μg/mL); Hill coefficient of PKC inhibition curve (PKC alpha [1]): 1.5±0.1; IC50 (PKC alpha [1]): 20.8 ± 2.5 µM; inhibition at 30 µM (PKC alpha [1]): 71.1 ± 4.5%; Range of minimum inhibitory concentration ([2]; Table 6): * (no inhibition at 64 μg/mL); melting point: 175 °C (dec.); down-regulation of several genes involved in DNA synthesis [7]: 5- to 7 fold; Range of minimum inhibitory concentration (Enterococcus faecalis; Table 6): 32 µg/mL; Range of minimum inhibitory concentration (Streptococcus pneumoniae; Table 6): 32 µg/mL; Range of minimum inhibitory concentration (Micrococcus luteus; Table 6): 0.5 to 2 µg/mL; Range of minimum inhibitory concentration (Cryptococcus neoformans; Table 6): * (no inhibition at 64 μg/mL); Range of minimum inhibitory concentration (Neisseria gonorrhoeae; Table 6): 0.25 µg/mL; inhibition at 6.25 µg/mL [8]: 98%; IC50 (pancreas BXPC-3; [11]): 0.061 µg/mL; cell cycle effect (propidium iodide flow cytometry) [9]: accumulation of cells in the GI phase; Range of minimum inhibitory concentration (Candida albicans; Table 6): * (no inhibition at 64 μg/mL); Range of minimum inhibitory concentration (Escherichia coli; Table 6): 8 µg/mL
